Counter-ions that a name gives are not always drawn. Marks after values point to notes of the source that are not given here.
Legend:
[1] = test system: mice cough induced by ammonia water; experiment: Antitussive test, cough induced by ammonia water in mice; format: in vivo, ICR mice
Description: Animals: male ICR mice; Drugs and reagents: dextromethorphan hydrobromide, ammonia water, 0.2% CMC-Na, protein BD-10; Apparatus: Compressed nebulizer (403T type), balance (XS105DU type). Experiment grouping: • Solvent control group; • Dextromethorphan 15 mg/kg group; • Protein BD-10, 20 mg/kg group, 50 mg/kg group.
Dextromethorphan and different doses of protein BD-10 (administration volume 10 ml/kg) were given orally in groups, and the solvent control group was given the same volume of distilled water. One hour later, mice were put into a sealed box and atomized 10% ammonia water for 10 seconds, and then observed and recorded the incubation period of cough in mice and the number of coughs in 2 minutes.
Record the time point of oral administration, the time point of atomization experiment, the incubation period of mice cough and the number of coughs within 2 minutes, respectively. The incubation period of cough refers to the number of seconds from the start of the atomization of ammonia to the occurrence of cough. The performance of coughing in mice is based on contraction of their abdominal muscles (breast contraction) and opening their mouths at the same time. Calculate the mean and standard error of each group of data, and use TTEST to compare the model group with other groups, and P<0.05 is considered as a significant difference.

[2] = test system: PLO-induced epilepsy in mice; experiment: Pilocarpine (PLO) induced convulsive epilepsy in mice; format: in vivo, ICR mice; set-up: mortality rate: unit not given here; conditions: Diazepam 2 mg/kg, PLO 225 mg/kg i.p.
Description: Animals: male ICR mice; Drugs: Pilocarpine HCl (PLO, pilocarpine, pilocarpine hydrochloride), Diazepam (diazepam tablets), protein BD-10.
Experiment grouping: • Model group: • Diazepam 2 mg/kg group; • Protein BD-10, 50 mg/kg group, 200 mg/kg group.
The drug was administered once in the afternoon the day before modeling, PLO-225 mg/kg (modeling agent) was injected intraperitoneally 1 hour after the test drug was administered intragastrically on the day of modeling. And positive drug can be administered once 20 minutes before modeling. Observe for 30 minutes after PLO injection.
Observation indicators: (1)Seizure situation: the time of seizures from Grade II to Grade IV; (2)the time to death.
(§1) Seizure grade: Refer to Racine grading standard: Grade 0: No response; Grade I: manifested as twitching of facial muscles or the corners of the mouth; Grade II: can nod; Grade III: twitching of one limb; Grade IV: rigidity or body twitching; Grade V: generalized epilepsy (generalized tonic seizures).
Count the number of Grade IV seizures and deaths in each group of mice in the experiment; Grade II, III and IV incubation period. […] Chi-square test was used for statistics of the number of cases. The mean value and standard error of the incubation period were calculated, and TTEST was used to compare the model group with other groups. P<0.05 was considered as a significant difference.

[3] = test system: PTZ-induced epilepsy in mice; experiment: Pentylenetetrazole (PTZ) induced epilepsy in mice; format: in vivo, ICR mice; conditions: Retigabine 60 mg/kg, PTZ 65 mg/kg i.p.
Description: Medicines: Pentylenetetrazol (PTZ), Retigabine, Protein BD-10.
Experiment grouping: • Model group; • Retigabine 60 mg/kg group; • Protein BD-10, 50 mg/kg group, 200 mg/kg group;
The drug was administered once in the afternoon the day before modeling, On the day of modeling, PTZ-65 mg/kg (modeling agent) was injected intraperitoneal 1 hour after the test drug was administered intragastrically, and the positive drug can be administered once half an hour before modeling. Continue to observe for 15 minutes after injection of PTZ.
Observation index: (1)Seizure situation: the time of seizures from Grade III to Grade VI; (2)Death situation
as §1
Count the cases of seizures and deaths in each group of mice in the experiment; Grade III and IV incubation period. The incubation period of mice that have not attacked to Grade IV is recorded as the maximum of 900 seconds. Chi-square test was used for statistics of the number of cases. Calculate the mean and standard error of the incubation period. Use TTEST to compare the model group with other groups, and P<0.05 is considered as a significant difference.

[4] = test system: lipopolysaccharide (LPS) induced fever in SD rats; experiment: Lipopolysaccharide (LPS) induced fever model in SD rats; format: in vivo; conditions: aspirin 300 mg/kg oral
Description: Animals: 230-260 grams of male SD rats; Drugs: lipopolysaccharide (LPS, SIGMA L-2880), aspirin (SIGMA A2093), protein BD-10; Instruments: electronic balance (SARTORIUS BP121S type), electronic clinical thermometer (CITIZEN CT-513W type).
Method: the method of intraperitoneal injection of Lipopolysaccharide to replicate rat fever model.
(§2) Preparation of experimental animals: After the experimental animals adapt to the experimental environment (temperature 22° C.±2° C., relative humidity 50%±2%) for 1 day. Pre-adaptation to measure rectal temperature at 8:00 and 15:00, rats were fasted and water was taken freely 12 h before experiment, and let the animal to empty its feces before measuring the rectal temperature. Apply petroleum jelly to the electronic thermometer probe before each temperature measurement. Insert the rat rectum 2 cm (can be marked at 2 cm to ensure that the depth of each insertion is consistent), and record the body temperature after the reading is stable.
Intraperitoneal injection of lipopolysaccharide to replicate rat fever model: The body temperature of the rats was measured before modeling. Qualified rats with a body temperature of 36.2-37.3° C. were selected and randomly divided into groups with 8 rats in each group. After oral administration of aspirin and different doses of protein BD-10, lipopolysaccharide (20 μg/kg, 2 ml/kg) was injected intraperitoneally immediately, and the normal control group was injected intraperitoneally with an equal volume of normal saline. The body temperatures of the rats were monitored after 2 hours for a total of 8 hours.
(§3) According to the body temperature measured at each time point on the day of the experiment, calculate the mean, standard deviation and standard error of the body temperature of each group of rats. The data of each group was compared with TTEST, and P<0.05 was considered as a significant difference.

[5] = test system: yeast-induced fever model in rats; experiment: Yeast-induced fever model in SD rats; format: in vivo; conditions: aspirin 300 mg/kg oral
Description: Animals: 230-260 grams of male SD rats; Medicines: yeast (OXOID LP0021), aspirin (SIGMA A2093), protein BD-10; Instruments: electronic balance (SARTORIUS BP121S type), electronic clinical thermometer (CITIZEN CT-513W type). Experiment grouping: • Normal control group; • Model group: yeast fever model; • Positive control group: Aspirin 300 mg/kg group; • Protein BD-10, 10 mg/kg group, 50 mg/kg group.
as §2
Subcutaneous injection of dry yeast to replicate rat fever model: The body temperature of the rats was measured before modeling. Qualified rats with a body temperature of 36.2-37.3° C. were selected and randomly divided into groups with 8 rats in each group. After oral administration of aspirin and different doses of protein BD-10, 20% yeast suspension (10 ml/kg) was injected subcutaneously immediately, and the normal control group was injected intraperitoneally with an equal volume of normal saline. The body temperatures of the rats were monitored after 2 hours for a total of 8 hours.
as §3

[6] = test system: acetic acid writhing of ICR mice; experiment: Acetic acid writhing test in ICR mice; format: in vivo
Description: Animals: male ICR mice; Drugs and reagents: aspirin, physiological saline, glacial acetic acid, protein BD-10. Experiment grouping: • Model group; • Aspirin 300 mg/kg group; • Protein BD-10, 50 mg/kg group, 200 mg/kg group.
One day after the experimental animals adapt to the environment, Aspirin 300 mg/kg, protein BD-10 50 mg/kg, 200 mg/kg were given orally one hour in advance, and the administration volume was 10 ml/kg; Then, 0.6% acetic acid solution was injected intraperitoneally, and the incubation period (seconds) and frequency of writhing in the animal was observed within 15 minutes.
Calculate the mean and standard error of the data in each group. Compared with the model group by TTEST, P<0.05 was considered as statistically different.

[7] = 2, 4, 6 and 8 hours after modeling, vs model group P<0.05
[8] = 20% yeast suspension 10 ml/kg s.c., SD rats
[9] = aspirin 300 mg/kg oral one hour before 0.6% acetic acid i.p., observed within 15 minutes

What does the source list for `COc1ccc2c(c1)[C@]13CCCC[C@@H]1[C@H](C2)N(C)CC3` [Dextromethorphan, dextromethorphan hydrobromide, reference compound]?
Incubation period (cough) ([1]; Dextromethorphan 15 mg/kg oral, 10% ammonia water atomized 10 seconds one hour later, X ± SEM): 38.4 ± 4.5 s; Number of coughs ([1]; Dextromethorphan 15 mg/kg oral, 10% ammonia water atomized 10 seconds one hour later, coughs within 2 minutes, X ± SEM): 34.0 ± 2.9; Effect on incubation period and number of coughs (in words) ([1]; dextromethorphan 15 mg/kg group, vs solvent control group P<0.05): significant improvement

For `CN1C(=O)CN=C(c2ccccc2)c2cc(Cl)ccc21` [Diazepam, reference compound], which “Grade IV seizure rate” value ([2]; 10 mice) is on record?
The value was 0** %.

What about the mortality rate ([2]; 10 mice) of the same compound?
The mortality rate was 0.

What about the “Grade II seizure incubation period” value ([2]; mean ± SEM) of the same compound?
The value was 109 ± 8 s.

And the “Grade III seizure incubation period” value ([2]; mean ± SEM)?
The value was 182 ± 14 s.

And the “Grade IV seizure incubation period” value ([2]; mean ± SEM, mice not reaching Grade IV recorded as maximum 1800 seconds)?
The value was 1800 ± 0 s.

And the Cases of deaths ([2]; of 10 mice)?
The Cases of deaths was 0.

What about the “Cases of Grade IV” value ([2]; of 10 mice, 30 minutes observation) of the same compound?
Its value is 0**.

Which “Grade IV seizure rate” value ([3]; 10 mice) does the source give for `CCOC(=O)Nc1ccc(NCc2ccc(F)cc2)cc1N` [Retigabine, reference compound] here?
Its value is 20%**.

And the mortality rate ([3]; 10 mice)?
Its mortality rate is 0%.

And the “Grade III seizure incubation period” value ([3]; mean ± SEM)?
Its value is 83 ± 7 s.

What about the “Grade IV seizure incubation period” value ([3]; mean ± SEM, mice not reaching Grade IV recorded as maximum 900 seconds) of the same compound?
Its value is 745 ± 103 s.

And the Cases of deaths ([3]; of 10 mice)?
The Cases of deaths was 0.

What about the “Cases of Grade IV” value ([3]; of 10 mice, 15 minutes observation) of the same compound?
Its value is 2**.

For `CC(=O)Oc1ccccc1C(=O)O` [aspirin, reference compound], which “Effect on body temperature of model rats (in words)” value [4, 7] is on record?
The value was “can effectively inhibit the increase in body temperature”.

And the “Body temperature 2 hours after modeling” value ([4]; LPS 20 μg/kg i.p., SD rats)?
Its value is 36.8 ± 0.1 °C.

What about the “Body temperature 4 hours after modeling” value ([4]; LPS 20 μg/kg i.p., SD rats) of the same compound?
Its value is 36.9 ± 0.2 °C.

And the “Body temperature 6 hours after modeling” value ([4]; LPS 20 μg/kg i.p., SD rats)?
The value was 36.8 ± 0.2 °C.

What about the “Body temperature 8 hours after modeling” value ([4]; LPS 20 μg/kg i.p., SD rats) of the same compound?
Its value is 36.9 ± 0.1 °C.

What about the “Effect on body temperature of model rats (in words)” value [5, 7] of the same compound?
Its value is “can effectively inhibit the increase in body temperature”.

And the “Body temperature 2 hours after modeling” value [5, 8]?
Its value is 37.0 ± 0.1 °C.

What about the “Body temperature 4 hours after modeling” value [5, 8] of the same compound?
The value was 37.0 ± 0.1 °C.

And the “Body temperature 6 hours after modeling” value [5, 8]?
The value was 37.0 ± 0.1 °C.

And the “Body temperature 8 hours after modeling” value [5, 8]?
The value was 37.0 ± 0.1 °C.

And the “Effect on writhing incubation period and times of writhing (in words)” value ([6]; Aspirin 300 mg/kg, vs model group P<0.05)?
The value was “can significantly delay the incubation period of writhing and reduce the times of writhing”.

And the Frequency of writhing [6, 9]?
The Frequency of writhing was 15.2 ± 2.9 times.

What about the Writhing incubation period [6, 9] of the same compound?
The Writhing incubation period was 290.3 ± 37.0 s.
